Experimental data reported in paper PMC5515844, “A new Prenylated Flavonoid induces G0/G1 arrest and apoptosis through p38/JNK MAPK pathways in Human Hepatocellular Carcinoma cells” (Scientific Reports, 2017).
Like-named read-outs stand apart in the source and are kept apart here.

Assays:
HepG2 = experiment: MTT cytotoxicity assay; format: cell-based, human; conditions: for IC50: Homo sapiens, HepG2, MTT, 48 h, mean ± SD; for effect of inhibitor on the reduction of cell viability by daphnegiravone D: HepG2, MTT, pretreated with 10 μM inhibitor 1 h, then 10 μM daphnegiravone D 48 h
Protocol: (§1) HepG2 and Hep3B (human hepatoma cells), Bcap37 and MCF-7 (human breast cancer cells), TE-1 (human esophageal cancer cells), A549 (human lung carcinoma cells), U251 and U87 (human glioma cells), were cultured in Dulbecco’s modified Eagle’s medium (DMEM) supplemented with 10% fetal bovine serum (FBS) and 1% penicillin/streptomycin (10000 U/mL penicillin, 10000 μg/ml streptomycin). SH-SY5Y (human neuroblastoma cells), LO2 (human normal liver cell) were grown in RPMI 1640 containing 10% FBS and 100 µg/ml penicillin, 100 µg/ml streptomycin. HepG2, Hep3B, MCF-7, TE-1, A549, U87, U251 and SHSY5Y cells were obtained from the American Type Culture Collection (Manassas, VA, USA). Bcap37 and LO2 cells were purchased from the Cell Bank of Chinese Academy of Sciences (Shanghai, China). All cells were incubated in a humidified atmosphere containing 5% CO2 at 37 °C.
(§2) Cells seeded in 96-well plates with 5 × 10^3 cells/well were adhered overnight and incubated with vehicle control (DMSO) or diverse concentrations of compounds for 48 h. After treatment, 20 μL of MTT (5 mg/mL) was added to each well and incubated for another 4 h at 37 °C. Then, 150 μL of DMSO/well was appended after removed the supernatant to dissolve the formed purple formazan crystals and the color absorbance was measured at 490 nm using a microplate reader (Molecular Devices, Thermo, CA, USA). The inhibition rate (%) was calculated as (A490(control) − A490(drug groups))/(A490(control) − A490(blank)) × 100 and the value of IC50 (the concentration that caused 50% inhibition of cell viability) was determined using SPSS 20.0. This experiment was measured in triplicate, independently.

Hep3B = experiment: MTT cytotoxicity assay; format: cell-based, human; conditions: for IC50: Homo sapiens, 48 h, mean ± SD; for effect of inhibitor on the reduction of cell viability by daphnegiravone D: pretreated with 10 μM inhibitor 1 h, then 2 μM daphnegiravone D 48 h
Protocol: as §1, §2

U87 = experiment: MTT cytotoxicity assay; format: cell-based; conditions: Homo sapiens, U-87 MG, 48 h, mean ± SD
Protocol: as §1, §2

U251 = experiment: MTT cytotoxicity assay; format: cell-based; conditions: Homo sapiens, U-251, 48 h, mean ± SD
Protocol: as §1, §2

A549 = experiment: MTT cytotoxicity assay; format: cell-based; conditions: Homo sapiens, 48 h, mean ± SD
Protocol: as §1, §2

SH-SY5Y = experiment: MTT cytotoxicity assay; format: cell-based; conditions: Homo sapiens, 48 h, mean ± SD
Protocol: as §1, §2

MCF-7 = experiment: MTT cytotoxicity assay; format: cell-based; conditions: Homo sapiens, MCF7, 48 h, mean ± SD
Protocol: as §1, §2

TE-1 = experiment: MTT cytotoxicity assay; format: cell-based; conditions: Homo sapiens, 48 h, mean ± SD
Protocol: as §1, §2

Bcap37 = experiment: MTT cytotoxicity assay; format: cell-based; conditions: Homo sapiens, 48 h, mean ± SD
Protocol: as §1, §2

[1] = tested on: nine human cancer cell lines and one normal hepatic cell line; experiment: MTT cytotoxicity assay, summary over the cell line panel; format: cell-based
Protocol: as §1, §2

LO2 = experiment: MTT cytotoxicity assay, normal hepatic cells; format: cell-based; conditions: Homo sapiens, L02, 48 h, mean ± SD
Protocol: as §1, §2

HepG2 cells = tested on: HepG2 cells; design: method as in PMID 25446044; conditions: cited from earlier work
[2] = most cancer cell lines, read-out: IC50 values against most cancer cell lines
[3] = most cell lines, read-out: IC50 values against most cell lines

Compound	IC50 (HepG2)	IC50 (Hep3B)	IC50 (U87)	IC50 (U251)	IC50 (A549)	IC50 (SH-SY5Y)	IC50 (MCF-7)	IC50 (TE-1)	IC50 (Bcap37)	IC50 [1, 2]	IC50 (LO2)	IC50 [1, 3]	effect of inhibitor on the reduction of cell viability by daphnegiravone D (HepG2)	effect of inhibitor on the reduction of cell viability by daphnegiravone D (Hep3B)	inhibitory effect on HepG2 cells (HepG2 cells)
COc1c(-c2ccc(O)c(O)c2)oc2c(CC=C(C)C)c(O)c(CC=C(C)C)c(O)c2c1=O [Compound 2, broussoflavonol B]	26.1 ± 1.89 µM	14.2 ± 1.56 µM	20.3 ± 2.08 µM	19.8 ± 1.53 µM	15 ± 1.21 µM	13.5 ± 0.95 µM	19.2 ± 1.76 µM	20 ± 2.3 µM	42.4 ± 4.83 µM	~20 µM	22.4 ± 2.63 µM				
CC(C)=CCc1c(-c2ccc(O)cc2O)oc2c3c(cc(O)c2c1=O)OC(C)(C)C=C3 [Compound 3, morusin]	9.76 ± 0.94 µM	14.2 ± 1.87 µM	23.4 ± 2.79 µM	17.1 ± 2.22 µM	23.9 ± 1.97 µM	45.4 ± 3.24 µM	13.5 ± 2.51 µM	22.8 ± 1.79 µM	31 ± 2.34 µM	~20 µM	28.2 ± 3.14 µM				
COc1c(-c2cc(O)c3c(c2)C=CC(C)(C)O3)oc2c(CC=C(C)C)c(O)cc(O)c2c1=O [Compound 4, daphnegiravone A]	36.7 ± 2.21 µM	> 100 µM	71 ± 4.36 µM	> 100 µM	66.8 ± 4.3 µM	74.4 ± 4.87 µM	> 100 µM	> 100 µM	> 100 µM		> 100 µM	> 50 µM			
CC(C)=CCc1cc([C@@H]2CC(=O)c3ccc(O)cc3O2)c2c(c1O)OC(C)(C)CC2 [Compound 5, daphnegiravone C]	> 100 µM	55.4 ± 3.97 µM	49.9 ± 3.87 µM	> 100 µM	20 ± 1.31 µM	54.8 ± 3.72 µM	> 100 µM	> 100 µM	> 100 µM		> 100 µM	> 50 µM			
O=c1[nH]cc(F)c(=O)[nH]1 [Compound 5FU, 5-Fluorouracil, reference compound]	47.1 ± 3.68 µM	10.4 ± 1.44 µM	20.2 ± 1.98 µM	42.6 ± 3.49 µM	31.9 ± 2.74 µM	18.6 ± 1.38 µM	42.3 ± 3.03 µM	26.7 ± 2.01 µM	44.1 ± 3.82 µM		31.9 ± 3.78 µM				
C[S+]([O-])c1ccc(-c2nc(-c3ccncc3)c(-c3ccc(F)cc3)[nH]2)cc1 (centres unmarked) [SB203580, reference compound]													abolished	abolished	
Oc1c2ccccc2c2c3c(cccc13)N=N2 [SP600125, reference compound]													exacerbated	exacerbated	
Kurzphenol C															weak inhibitory effect
